Results published in patent US9770421B2, “Uses for idebenone and related benzoquinones in metabolic disorders and other PPAR α/γ related diseases and conditions” (INDANIO BIOSCIENCE INC., priority 2013, dated 2017).
Entries after “also recorded” stand apart in the source; their conditions may differ.

Experiments:
C57Bl/6 db/db mice = assay: db/db mouse study (NAFLD features); type: in vivo; conditions: for Decrease in liver weight in comparison to vehicle treated mice: 3 weeks
Description: Db/db study: Forty male C57Bl/6 db/db mice (called B6.BKS(D)-Lepr db/J) were ordered from Jackson Laboratories (#000697) at 7 weeks of age. Mice were housed individually with free access to food (2016 Teklad Global 16% Protein Rodent Diet) and water on a 14 hour light/dark cycle (6 a.m. to 8 p.m. light). […] Food was exchanged on a daily bases. Harlan corn cob bedding was provided and was changed every week or as needed. Following a 1 week acclimation, 32 mice were chosen based on desired body weight range. Remaining mice were euthanized. Mice were randomized by body weight into four treatment groups (n=8) by body weight. Dosing occurred for 21 days. Mice were euthanized by CO2 euthanasia and livers were fixed in neutral buffered formalin (NBF) for 24 h, followed by a one day fixation in 30% Sucrose and 10% Sucrose. Oil O Red staining was performed through the Pathology Research Program at the University Health Network in Toronto [46]. [table] 100 mg of db/db livers were homogenized in RIPA buffer and protein concentration was quantified using a BCA protein assay kit (Cell signalling #7780) followed by measurement of ‘Thiobarbituric Acid Reactive Substances’ (TBARS) using a TBARS assay kit (Cayman Chemicals #10009055). Total RNA was extracted from 100 mg of db/db livers using RNA STAT-60 (Tel-Test, Inc.), treated with DNase I (RNase-free, Roche), and reverse transcribed into cDNA with random hexamers using the High Capacity Reverse transcription system (Applied Biosystems, ABI). Primers used are shown below and were validated as previously described. Real-time QPCR reactions were performed on an ABI 7900 in 384-well plates containing 12.5 ng cDNA, 150 nM of each primer, and 5 μl 2×SYBR Green PCR Master Mix (ABI) in a 10 μl total volume. Relative mRNA levels were calculated using the comparative Ct method normalized to cyclophilin mRNA.

PPARγ LBD = target: T1, PPARγ LBD (Homo sapiens, UniProt P37231); assay: In vitro co-purification with His-tagged PPARγ LBD, MS; type: binding; conditions: incubated with 10 μM idebenone
T1 construct: His-tagged PPARα, δ and γ LBDs were expressed in bacteria, Ni-NTA purified; His; made in house; host or cells: bacteria (E. coli)
T1 sequence (P37231 238-503 limits assumed): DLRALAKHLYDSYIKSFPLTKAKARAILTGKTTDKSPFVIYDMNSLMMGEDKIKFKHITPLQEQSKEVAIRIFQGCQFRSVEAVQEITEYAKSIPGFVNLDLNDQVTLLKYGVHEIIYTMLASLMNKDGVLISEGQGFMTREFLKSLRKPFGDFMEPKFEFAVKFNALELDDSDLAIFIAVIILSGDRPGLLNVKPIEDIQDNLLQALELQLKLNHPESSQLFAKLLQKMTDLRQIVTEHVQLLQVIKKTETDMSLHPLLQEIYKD
Description: To see if idebenone can bind to directly to other PPAR LBDs, His-tagged PPARα, δ and γ LBDs were expressed in bacteria, Ni-NTA purified and incubated with 10 μM idebenone. After several washes in a 10 kDa cut off Amicon centrifuge filter (Millipore), lipids were extracted and analyzed by MS.

hPPARγ = target: T2, hPPARγ (Homo sapiens, UniProt P37231); assay: PPARγ ligand trap (LT) zebrafish GFP reporter screen/assay; type: in vivo; parameters: pLT PPARα (aa 178-468) and pLT PPAR γ (aa 188-477) lines; expressed in transfected cells; host or cells: transgenic zebrafish embryos (heat-induced ligand-trap line); conditions: for GFP reporter activation in LT-PPARγ embryos: transgenic embryos, 48 hpf images
T2 sequence (P37231 188-477 isoform P37231-2): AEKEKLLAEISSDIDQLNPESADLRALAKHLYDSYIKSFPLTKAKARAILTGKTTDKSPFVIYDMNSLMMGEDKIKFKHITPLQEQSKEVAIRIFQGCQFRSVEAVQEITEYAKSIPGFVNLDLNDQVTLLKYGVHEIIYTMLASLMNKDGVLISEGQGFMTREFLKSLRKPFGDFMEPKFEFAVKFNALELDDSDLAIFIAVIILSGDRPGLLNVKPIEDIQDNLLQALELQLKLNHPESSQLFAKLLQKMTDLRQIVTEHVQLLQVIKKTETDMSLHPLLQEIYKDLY
Description: Digested DNA was adjusted with 0.1% phenol red. 4.6 nl of DNA solution was injected into the blastomeres of early one-cell stage embryos.
F0 fish were crossed with WT fish to identify germ-line transformed animals, as determined by agonist treatments and GFP expression. F1 progeny showing strong and consistent GFP responses were selected for F2 homozygote production. To avoid reporter GFP silencing of stable transgenic LT lines, homozygous fish showing strong and consistent GFP responses were selected for continued propagation of next generations.
PPARγ ligand trap zebrafish screens were performed under optimized conditions in 96-well format using the ImageXpress Velos Laser Scanning Cytometer. 1 or 2 dpf embryos were heat induced (28→37° C.) for 30 minutes, de-chorionated and then arrayed in 96-well plates (5 per well). Embryo water (0.075 g/L NaHCO3, 0.018 g/L Sea salt, 0.0084 g/L CaSO42H2O) was removed and 200 μl of fresh embryo water/well including dissolved small molecules or solvent was added.
Also included was the CoQ10 analog idebenone.

COC1=C(OC)C(=O)C(CCCCCCCCCCO)=C(C)C1=O [Idebenone, 2-(10-hydroxydecyl)-5,6-dimethoxy-3-methyl-2,5-cyclohexadiene-1,4-dione]
Histological NAFLD features of liver (C57Bl/6 db/db mice; 3 weeks in food): reversed these histological NAFLD | Decrease in liver weight in comparison to vehicle treated mice (C57Bl/6 db/db mice; 900 mpk in food): 3% | Decrease in liver weight in comparison to vehicle treated mice (C57Bl/6 db/db mice; 1800 mpk in food): 6.5% | Liver ADFP mRNA expression (QPCR) (C57Bl/6 db/db mice; 21 days): down regulated | Liver PLIN4 mRNA expression (QPCR) (C57Bl/6 db/db mice; 21 days): down regulated | Liver lipid content (Oil Red O staining) (C57Bl/6 db/db mice; 21 days, 900/1800 mpk idebenone, 10 mpk rosiglitazone): significant dose-dependent decrease in fat; also recorded: significant dose dependent decrease in fat | Liver lipid peroxides (TBARS) (C57Bl/6 db/db mice; liver homogenates, 21 days): reduced | Binding to PPARγ LBD (co-purification, MS) (PPARγ LBD): strong binding | Hit activating the PPARγ ligand trap reporter fish line (hPPARγ; Enzo FDA approved drug library, screened at 1, 3 and 10 μM): hits | Concentration yielding maximal activation in fish reporter system (hPPARγ; in vivo): ≥ 4 µM | GFP reporter activation in LT-PPARγ embryos (hPPARγ): more limited GFP expression in cells of the blood, epidermis and CNS | GFP reporter activation in LT-PPARγ embryos (hPPARγ; listed as idebenone): weaker and less widespread than responses to rosiglitazone or pioglitazone; also recorded: dual agonists for PPARα and PPARγ | EC50 (hPPARγ; zebrafish ligand trap, read-out: EC50 in fish): 2000 nM
